pIC50: −log10 of the molar value. Where two headings read alike, the source gives them in different places.
How the values were obtained:
[1] = Solubility of individual peptides
[2] = test system: colon cancer and NSCLC patients; details: out of 12 patients who received the DC vaccine; cited from earlier work
[3] = test system: HLA-A2 supertype alleles; experiment: MHC binding of motif-containing peptides to purified HLA-A2 supertype molecules; parameters: species or system human; details: all peptides bind prototype HLA-A2.1
Text: Assays for determining binding are described in detail, e.g., in PCT publications WO 94/20127 and WO 94/03205, and other publications such Sidney et al., Current Protocols in Immunology 18.3.1 (1998); Sidney, et al., J. Immunol. 154:247 (1995); and Sette, et al., Mol. Immunol. 31:813 (1994). It should be noted that IC50 values can change, often dramatically, if the assay conditions are varied, and depending on the particular reagents used (e.g., HLA preparation, etc.). For example, excessive concentrations of HLA molecules will increase the apparent measured IC50 of a given ligand.
A computer-based motif and algorithm search was performed on the primary amino acid sequences of CEA, MAGE-2/3, HER-2/neu, and p53 to predict peptides most likely to bind the MHC molecules of the five alleles of the HLA-A2 supertype family (Tables 4 and 6) (Sette, A. and J. Sidney, Immunogenetics 50:201-212 (1999)). Motif and algorithm-positive peptides were then synthesized and tested for binding to purified HLA-A2.1, the molecule most frequently expressed in humans as well as other MHC molecules of the HLA-A2 supertype family.

[4] = test system: purified HLA-DR molecules; details: cited from earlier work; for pIC50: high or intermediate affinity, most prevalent HLA-DR molecules, read-out: IC50 for HLA-DR binding; for Number of HLA-DR molecules bound: out of 16 DR molecules tested
[5] = test system: patients with recurrent or residual cervical carcinoma; details: cited from earlier work
[6] = test system: HLA-A2.1 transgenic mice; details: shown by others; cited from earlier work
[7] = test system: PBMC obtained from healthy donors and cancer patients; details: primary in vitro induction in healthy donors and recall responses in cancer patients; cited from earlier work
[8] = test system: HLA-A2.1 positive target cells and wild-type peptide; experiment: in vitro primary CTL induction with human PBMC, read-out on peptide-loaded targets; type: cell-based
Description: In the final step of the epitope screening process, peptides with high cross-reactive MHC binding to the HLA-A2 supertype family receptors were tested for immunogenicity. The assay is an in vitro primary CTL induction system where CD8^+ PBMC from normal subjects are stimulated in vitro, initially with peptide-loaded dendritic cells (DCs) (adherent PBMC expanded in GM-CSF and IL-4), followed by two weekly cycles of restimulation with peptide (Keogh, E., et al., J. Immunol. 167:787-796 (2001); Kawashima, I., et al., Hum. Immunol. 59:1-14 (1998)). Following expansion of naïve precursor cells, CTL activity is determined in the presence of HLA-A2.1 positive target cells and wild-type peptide, using cytotoxicity (^51Cr-release assay) or interferon-gamma (IFN-γ) production (ELISA) as the read-out. Immunogenic peptides that induced CTL were further tested for responses against the naturally processed epitope expressed on tumor cell lines. Epitopes that induced tumor-reactive CTL were considered as vaccine candidates.

[9] = Solubility, Acidic conditions (pH 2-4), 0.1% TFA, 0.15-0.1875M acetic acid, 25 mM pH 4 sodium acetate, 2-5 mg/ml
[10] = pH 9.6, Solubility, Basic conditions (pH 9.6-13), 25 mM pH 9.6 arginine, 25 mM pH 9.6 sodium bicarbonate, 0.1M NaOH, 2-5 mg/ml
[11] = Solubility, Acidic conditions (pH 2-4)
[12] = pH 9.6, Solubility, Basic conditions (pH 9.6-13)

CC(C)C[C@H](NC(=O)[C@H](CCC(N)=O)NC(=O)[C@@H](NC(=O)[C@@H]1CCCN1C(=O)C(C)(C)NC(=O)[C@H](CC(C)C)NC(=O)[C@@H](N)CCCCN)C(C)C)C(=O)N[C@@H](Cc1c[nH]c2ccccc12)C(=O)N[C@H](C(=O)O)C(C)C [Peptide 1323.06, KLBPVQLWV]
solubility [1, 9]: > 2000 µg/mL
solubility ([1]; Solubility, DMSO, 2-5 mg/ml): > 2000 µg/mL
solubility [1, 10]: > 2000 µg/mL
Solubility at physiological pH [1]: soluble

CC(C)C[C@H](NC(=O)[C@@H](N)CC(C)C)C(=O)N[C@H](C(=O)N[C@@H](Cc1ccccc1)C(=O)N[C@@H](Cc1c[nH]c2ccccc12)C(=O)N[C@@H](CC(N)=O)C(=O)N1CCC[C@H]1C(=O)N1CCC[C@H]1C(=O)N[C@H](C(=O)O)C(C)C)[C@@H](C)O [Peptide 1243.08]
solubility [11]: > 2000 µg/mL
solubility (Solubility, DMSO): > 2000 µg/mL
solubility [12]: > 2000 µg/mL

CC(C)C[C@H](NC(=O)[C@H](CC(N)=O)NC(=O)[C@H](CC(C)C)NC(=O)[C@H](CC(=O)O)NC(=O)[C@H](C)NC(=O)CNC(=O)[C@H](CO)NC(=O)[C@H](CC(C)C)NC(=O)[C@@H](N)Cc1ccc(O)cc1)C(=O)O [Peptide 1350.01]
clinical responders [2]: five
solubility [1, 9]: > 2000 µg/mL
solubility ([1]; Solubility, DMSO, 2-5 mg/ml): > 2000 µg/mL
solubility [1, 10]: > 2000 µg/mL
Solubility at physiological pH [1]: soluble
No. A2 Alleles Crossbound [3]: 3

aKXVAAWTLKAAa-NH2
pIC50 [4]: ≥ 6.00
Number of HLA-DR molecules bound [4]: 15

CC(C)C[C@H](NC(=O)[C@H](CO)NC(=O)CNC(=O)[C@H](Cc1ccccc1)NC(=O)[C@@H](NC(=O)[C@@H](N)CCCCN)C(C)C)C(=O)N[C@@H](C)C(=O)N[C@@H](Cc1ccccc1)C(=O)N[C@H](C(=O)O)C(C)C [Peptide 1334.10]
solubility [11]: > 2000 µg/mL
solubility (Solubility, DMSO): > 2000 µg/mL
solubility [12]: < 5000 µg/mL

TT 830-843: tetanus toxoid (TT) peptide 830-843, a "universal" epitope (QYIKANSKFIGITE; UniProt P04958 830-843, looked up, fragment) [reference compound]
Number of HLA-DR molecules bound [4]: seven

CC(C)C[C@H](NC(=O)[C@@H](NC(=O)[C@H](Cc1c[nH]c2ccccc12)NC(=O)[C@H](C)NC(=O)[C@H](C)NC(=O)[C@@H](NC(=O)[C@H](CC1CCCCC1)NC(=O)[C@H](CCCCN)NC(=O)[C@@H](C)N)C(C)C)[C@@H](C)O)C(=O)N[C@@H](CCCCN)C(=O)N[C@@H](C)C(=O)N[C@@H](C)C(=O)N[C@H](C)C(=O)O [Peptide 965.10, aKXVAAWTLKAAa]
immunogenicity in humans ([5]; co-emulsified with HPV-derived CTL epitopes): highly immunogenic in humans
safety ([5]; patients with recurrent or residual cervical carcinoma): Safety was, in fact, demonstrated
pIC50 [4]: ≥ 6.00
solubility [1]: > 2000 µg/mL
solubility ([1]; pH 9.6): < 5000 µg/mL

CSCC[C@H](NC(=O)[C@@H](N)CO)C(=O)N1CCC[C@H]1C(=O)N1CCC[C@H]1C(=O)N1CCC[C@H]1C(=O)NCC(=O)N[C@H](C(=O)N[C@@H](CCCNC(=N)N)C(=O)N[C@H](C(=O)O)C(C)C)[C@@H](C)O [Peptide 1295.03]
peptide and tumor cell-reactive CTL in vivo [6]: induce peptide and tumor cell-reactive CTL in vivo
solubility [1, 9]: > 2000 µg/mL
solubility ([1]; Solubility, DMSO, 2-5 mg/ml): > 2000 µg/mL
solubility [1, 10]: > 2000 µg/mL
Solubility at physiological pH [1]: soluble

p53.149: wild-type version of analog p53.149M2 used in EP-2101 (STPPPGTRV; UniProt P04637 149-157, looked up, fragment) [reference compound]
specific CTL responses using PBMC [7]: induced specific CTL responses

CC[C@H](C)[C@H](N)C(=O)N[C@@H](CCSC)C(=O)N[C@H](C(=O)NCC(=O)N[C@@H](Cc1c[nH]cn1)C(=O)N[C@@H](CC(C)C)C(=O)N[C@H](C(=O)NCC(=O)N[C@H](C(=O)O)C(C)C)C(C)C)[C@@H](C)CC [Peptide 1352.02]
CTL activity of heteroclitic analog versus wild-type peptide [8]: strong CTL activity which exceeds that of the wild-type peptide
solubility [1, 9]: > 2000 µg/mL
solubility ([1]; Solubility, DMSO, 2-5 mg/ml): > 2000 µg/mL
solubility [1, 10]: < 5000 µg/mL

CC[C@H](C)[C@H](NC(=O)[C@H](CCC(=O)O)NC(=O)[C@H](C)NC(=O)[C@@H](NC(=O)[C@@H](N)CCCCN)C(C)C)C(=O)N[C@H](C(=O)N[C@@H](Cc1c[nH]cn1)C(=O)N[C@@H](Cc1ccccc1)C(=O)N[C@@H](CC(C)C)C(=O)O)C(C)C [Peptide 1352.03]
CTL activity of heteroclitic analog versus wild-type peptide [8]: strong CTL activity which exceeds that of the wild-type peptide
solubility [1, 9]: > 2000 µg/mL
solubility ([1]; Solubility, DMSO, 2-5 mg/ml): > 2000 µg/mL
solubility [1, 10]: > 2000 µg/mL
Solubility at physiological pH [1]: soluble

CC[C@H](C)[C@H](NC(=O)CNC(=O)[C@H](Cc1ccccc1)NC(=O)[C@@H](NC(=O)[C@H](CC(C)C)NC(=O)[C@H](CCC(N)=O)NC(=O)[C@H](CC(C)C)NC(=O)[C@@H](N)Cc1ccc(O)cc1)C(C)C)C(=O)N[C@@H](CCC(=O)O)C(=O)N[C@H](C(=O)O)C(C)C [Peptide 1090.01]
peptide and tumor cell-reactive CTL in vivo [6]: induce peptide and tumor cell-reactive CTL in vivo
solubility [11]: < 5000 µg/mL
solubility (Solubility, DMSO): > 2000 µg/mL
solubility [12]: > 2000 µg/mL

CC(C)C[C@H](NC(=O)[C@H](CC(C)C)NC(=O)[C@@H](N)CCCNC(=N)N)C(=O)N[C@@H](CCC(N)=O)C(=O)N[C@@H](CCC(=O)O)C(=O)N[C@H](C(=O)N[C@@H](CCC(=O)O)C(=O)N[C@@H](CC(C)C)C(=O)N[C@H](C(=O)O)C(C)C)[C@@H](C)O [Peptide 1013.08]
specific CTL responses using PBMC [7]: induced specific CTL responses
solubility (Solubility, DMSO): > 2000 µg/mL
solubility [12]: > 2000 µg/mL
